Test results from patent US7168937B2, “Method for the enzymatic resolution of the racemates of aminomethyl-aryl-cyclohexanol derivatives” (Gruenenthal GmbH, priority 2000, dated 2007).
Where two headings read alike, the source gives them in different places.

What was measured:
Format in all cases: physicochemical
[1] = logP and logD values water/cyclohexane; details: for ΔlogP value at pH 7.4: difference of logP water/octanol and water/cyclohexane; for ΔlogD value at pH 7.4: pH 7.4, difference of logD water/octanol and water/cyclohexane
[2] = logP and logD values water/octanol; details: for logD: pH 7.4, water/octanol; for logP: water/octanol
[3] = pKa values of the compounds 1 and 2
[4] = pH 7.4, water/cyclohexane, read-out: logD value at pH 7.4 water/cyclohexane
[5] = water/cyclohexane, read-out: logP value: water/cyclohexane

SMILES	ΔlogP value at pH 7.4 [1]	ΔlogD value at pH 7.4 [1]	logD hydrocarbon water [1, 4]	logD hydrocarbon water [1, 5]	logD [2]	logP [2]	pKa [3]
CCCC(=O)O[C@H]1CC[C@](O)(c2cccc(OC)c2)[C@@H](CN(C)C)C1 (racemic) [Compound 1, (1SR,3RS,4RS)-butyric acid 3-dimethylaminomethyl-4-hydroxy-4-(3-methoxy-phenyl)-cyclohexyl ester]	0.538	0.538	0.946	2.36	1.48	2.9	8.8
COc1cccc([C@@]2(O)CC[C@H](O)C[C@@H]2CN(C)C)c1 (racemic) [Compound 2, (1RS,2RS,4SR)-2-dimethylaminomethyl-1-(3-methoxy-phenyl)-cyclohexane-1,4-diol]	1.733	1.733	-2.3	-0.632	-0.564	1.1	9.05
